{"source": "patent US20220017833A1", "about": "“Methods and Compositions for Scavenging Sulfides from Hydrocarbon Fluids and Aqueous Streams” (Nexgen Oilfield Chemicals, LLC, priority 2019, published 2022)", "key": {"[1]": {"test": "operational testing in a natural gas production facility", "experimental": "In operational testing in a natural gas production facility, both an anhydrous glyoxy isopropyl aminacetal (GIDAc) scavenging system and an aqueous glyoxy isopropyl diaminol (GIDA) scavenging system were tested in comparison with an industry standard triazine-based scavenger."}, "[2]": {"test": "Short Reaction Time Capacity Test", "conditions": "20 g test; for Min to BT / Min to FD: 3.00 g BuOH, GIDA 6.68 g as GID, 3.32 g water", "text": "Referring now to FIG. 1, therein is schematically depicted a sulfide scavenger testing system 100 comprising a gas source 2, a flow regulator 4, gas treatment vessel 6, and a sulfide measurement device 8. In one testing embodiment, gas (not shown) is flowed from gas source 2 via gas feed piping 10 into flow regulator 4, which regulates gas flow to gas treatment vessel 6 via regulated gas feed piping 12. The regulated gas flows into gas treatment vessel 6 via a bottom inlet 14 thereof, where it comes into contact with a volume of liquid 16 comprising a sulfide scavenger system (not separately labeled). The gas, having been treated by the liquid, flows out of a top end 18 of gas treatment vessel 6 and flows into sulfide measurement device 8 via treated gas outlet piping 20.\nIn one embodiment, gas flow from the flow regulator 4 is controlled such that the gas is flowed into the gas treatment vessel 6 at a flow rate of 100 mL/min. up to 500 mL/min. In one embodiment, a gas sparging device, such as a fine pore frit (not shown), is utilized to better distribute the gas into the scavenger liquid. In one embodiment, the gas treatment vessel 6 contains about 20 g of a liquid H2S scavenger, such as one or more diaminols/diaminacetals in a chemical system as described above. In one aspect, to the extent possible, H2S and/or CO2 are scavenged from the gas by the scavenger and the treated (“sweet”) gas exits top end 18 of treatment vessel 6. In one embodiment, sulfide measurement device 8 monitors the concentration of H2S leaving treatment vessel 6. in the gas phase. In other embodiments (not shown), a CO2 measurement device may be similarly employed to monitor the concentration of CO2 leaving treatment vessel 6 in the gas phase.\nIn one embodiment, gas is flowed through sulfide scavenger testing system 100 until the outlet H2S concentration reaches a 4,000 ppm target, at which point the test is concluded. This relative time duration before the target is reached is used to compare H2S scavenger capacity given the kinetics of each sulfide scavenger system. The longer the duration, the better the capacity.\nThe fine bubbles produced rise slowly, providing plenty of time, plenty of surface area, and a short path through which the H2S must diffuse to the scavenger in the liquid 16. Detector 8 on the outlet line 20 is used to measure H2S concentration in the exiting gas. The times to first detection (FD), at a threshold of 15 ppm, and to complete breakthrough (BT), at the detector saturation of 4000 ppm (0.4%), are recorded. This test is designed to measure the effective scavenging capacity in applications with long contact times.\nThis test is the same as the Long Reaction Time Capacity Test, but without the gas sparging device, so as to produce larger bubbles, and at a higher feed rate of 200 mL/min, after the first 8 minutes at 100 mL/min. The larger bubbles rise quickly through the liquid 16, providing little time, little surface area, and a long path through which the H2S must diffuse to the scavenger in the liquid. This test is designed to measure the effective scavenging capacity in applications with short contact times. It is far more reaction rate dependent than the Long Reaction Time Capacity and so is a more critical and differentiating test.\nWith triazine, one H2S reacts twice with the same molecule of triazine, replacing one amine, so the rate is “first order”, meaning proportional to the concentration of triazine."}, "[3]": {"test": "Solution Homogeneity Test", "assay_type": "physicochemical", "conditions": "Table 5; glyoxy alkyl diaminol in water and MeOH only", "text": "In one aspect, as two-phase reaction products are problematic, scavenger system homogeneity is desired. The two phases could be emulsified or otherwise finely dispersed, but in practice, even fine, seemingly stable dispersions eventually separate or stratify in extended storage or critical use and are not robust enough for practical use. They are not allowed, for example, to be fed through capillaries for fear of plugging them. In this pass/fail test, a sample is held up for visual inspection in a backlit clear vial. A clear, single-phase, homogeneous solution is a pass. Anything else is a fail."}, "[4]": {"test": "Spent Water Flowability Test", "assay_type": "physicochemical", "parameters": "key: Pass: A homogeneous, single-phase solution or thin layer of readily flowable non-sticking liquid constitutes a pass.; Fail: Any solids or thick, sticky insoluble liquid is a fail.; PASS: A homogeneous, single-phase solution or thin layer of readily flowable non-sticking liquid constitutes a pass.; FAIL: Any solids or thick, sticky insoluble liquid is a fail", "conditions": "Table 5; glyoxy alkyl diaminol in water and MeOH only", "experimental": "In field applications, spent scavenger is disposed of through a wastewater system. Spent scavenger might be soluble in the scavenger system but insoluble in wastewater. If it cannot be disposed of, it is not suitable for use. To ensure wastewater processing runs trouble free, spent scavenger passing the Spent Solids Fouling Test is then added to 39 times its weight in water (2.5%) and examined again for insoluble solids and viscous, sticky liquids that might foul the wastewater system. Any solids or thick, sticky insoluble liquid is a fail. A homogeneous, single-phase solution or thin layer of readily flowable non-sticking liquid constitutes a pass."}, "[5]": {"test": "Hot Spray Fouling Test", "assay_type": "physicochemical", "conditions": "Table 5; glyoxy alkyl diaminol in water and MeOH only", "text": "In many gas applications, the scavenger must by sprayed into a hot gas stream. This can create insoluble materials (“solids”) as the scavenger system evaporates and/or decomposes. These solids accumulate and foul (interfere with the function) of the vessel, line, or equipment to which the scavenger is being fed. This precludes the scavenger being used in that application. Referring now to FIG. 2, a spray test system 200 is utilized to for the Hot Spray Fouling Test. In one embodiment, an injection atomizer apparatus 22 is employed, wherein the scavenger formulation (not separately labeled) is sprayed onto a sheet 26 through an atomizing nozzle 24, like that used to introduce the scavenger into a gas line, tank, or vessel. The material is first placed in a double boiler (not shown) and brought to 180° F. The heated liquid is then placed in the injection atomizer apparatus 22 and sprayed horizontally onto an aluminum sheet 26 twelve inches away. The chemical drains gravitationally down the sheet where it is funneled into a beaker 28 for collection. If solids are observed on the sheet 26 or in the draining or collected fluid, the sample fails. If no solids are observed, it passes the test."}, "[6]": {"conditions": "Eq/test GIDAc 0.114, GIDA 0.076 (8.00 g MeOH, 2.00 g BuOH)"}, "[7]": {"conditions": "Eq/test Triazine 0.068, GIDAc 0.157, GIDA 0.076 (7.50 g MeOH, 2.50 g BuOH)"}, "[8]": {"conditions": "GIDAc 8.00 g as GID, 9.00 g MeOH, 8.00 g MeOH, 2.00 g BuOH"}, "[9]": {"conditions": "Triazine 7.50 g + 12.50 g water, GIDAc 11.00 g as GID, 6.00 g MeOH, 7.50 g MeOH, 2.50 g BuOH"}}}
{"smiles": "CC(C)NC(O)C(O)NC(C)C", "note": "(stereo not shown) [GIDA, 1,2-bis[(propan-2-yl)amino]ethane-1,2-diol]", "values": [{"measurement": "H2S removal on a pound-per-pound basis", "setting": "[1]; compared with the triazine-based scavenging system", "result": "significantly higher H2S removal"}, {"measurement": "employable in scavenging H2S from natural gas", "setting": "[1]; natural gas production facility", "result": "employable"}, {"measurement": "Min/Eq BT", "setting": "[2]; [6]", "result": 607, "unit": "Min/Eq"}, {"measurement": "Min/Eq FD", "setting": "[2]; [6]", "result": 515, "unit": "Min/Eq"}, {"measurement": "Min/Eq BT", "setting": "[2]; [7]", "result": 541, "unit": "Min/Eq"}, {"measurement": "Min/Eq FD", "setting": "[2]; [7]", "result": 462, "unit": "Min/Eq"}, {"measurement": "Min to BT", "setting": "[2]; [8]", "result": 46, "unit": "min"}, {"measurement": "Min to FD", "setting": "[2]; [8]", "result": 39, "unit": "min"}, {"measurement": "Min to BT", "setting": "[2]; [9]", "result": 41, "unit": "min"}, {"measurement": "Min to FD", "setting": "[2]; [9]", "result": 35, "unit": "min"}, {"measurement": "Solution Homogeneity", "setting": "[3]", "result": "Pass"}, {"measurement": "Spent Water Flowability", "setting": "[4]", "result": "Fail"}, {"measurement": "Hot Spray Fouling", "setting": "[5]", "result": "Fail"}]}
